From patent publication US20060148014A1, “Tubulin isotype screening in cancer therapy using hemiasterlin analogs” (priority 2004, published 2006)

Columns and labels:
Format in all cases: cell-based
[1] = test system: HCC1806 human breast cancer cell line; experiment: Cell growth inhibition assay (methylene blue), HCC1806; details: continuous presence of compound 4 or 7 days, at least three experiments, read-out: Average IC50
Description: (§1) The following human breast cancer cell lines were obtained from the ATCC. Cells were maintained according to ATCC-recommended culture conditions. AU565 (ATCC Catalog No. ATCC Catalog. No. CRL-2351), BT-20 (ATCC Catalog No. HTB-19), MCF7 (ATCC Catalog No. HTB22), MDA-MB-231 (ATCC Catalog No. HTB-26), MDA-MB-435 (ATCC Catalog No. HTB-129), MDA-MB-468 (ATCC Catalog No. HTB-132), HCC38 (ATCC Catalog No. CRL-2314), HCC70 (ATCC Catalog No. CRL-2315), HCC1143 (ATCC Catalog No. CRL-2321), HCC1428 (ATCC Catalog No. CRL-2327), HCC1500 (ATCC Catalog No. CRL-2329), HCC1806 (ATCC Catalog No. CRL-2335), HCC1954 (ATCC Catalog No. CRL-2338), HCC2218 (ATCC Catalog No. CRL-2343), UACC-812 (ATCC Catalog No. CRL-1897), UACC-893 (ATCC Catalog No. CRL-1902), ZR-75-1 (ATCC Catalog No. CRL-1500), ZR-75-30 (ATCC Catalog No. CRL-1504).
(§2) Cultured human breast cancer cells were placed in 96-well plates and grown in the continuous presence of test compounds for 4 or 7 days. To expose the cells to test compounds for 7 days, medium was replaced with fresh medium containing compounds after 4 days of exposure and cells were incubated for 3 additional days. Cell growth was assessed using modifications (Amin et al., Cancer Res., 47:6040-6045, 1987; incorporated herein by reference) of a methylene blue-based microculture assay (Finlay et al., Anal. Biochem., 139:272-277, 1984; incorporated herein by reference).
(§3) To investigate the possible expression of PgP by the cell lines used in this study, the antiproliferative effects of paclitaxel were determined in the presence and absence of verapamil, a known inhibitor of PgP.

[2] = test system: HCC70 human breast cancer cell line; experiment: Cell growth inhibition assay (methylene blue), HCC70; details: continuous presence of compound 4 or 7 days, at least three experiments, read-out: Average IC50
Description: as §1, §2, §3

[3] = test system: ZR-75-1 human breast cancer cell line; experiment: Cell growth inhibition assay (methylene blue), ZR-75-1; details: continuous presence of compound 4 or 7 days, at least three experiments, read-out: Average IC50
Description: as §1, §2, §3

[4] = test system: HCC1143 human breast cancer cell line; experiment: Cell growth inhibition assay (methylene blue), HCC1143; details: continuous presence of compound 4 or 7 days, at least three experiments, read-out: Average IC50
Description: as §1, §2, §3

[5] = test system: UACC-893 human breast cancer cell line; experiment: Cell growth inhibition assay (methylene blue), UACC-893; details: continuous presence of compound 4 or 7 days, at least three experiments, read-out: Average IC50
Description: as §1, §2, §3

[6] = test system: MDA-MB-231 human breast cancer cell line; experiment: Cell growth inhibition assay (methylene blue), MDA-MB-231; details: continuous presence of compound 4 or 7 days, at least three experiments, read-out: Average IC50
Description: as §1, §2, §3

[7] = test system: HCC1954 human breast cancer cell line; experiment: Cell growth inhibition assay (methylene blue), HCC1954; details: continuous presence of compound 4 or 7 days, at least three experiments, read-out: Average IC50
Description: as §1, §2, §3

[8] = test system: UACC-812 human breast cancer cell line; experiment: Cell growth inhibition assay (methylene blue), UACC-812; details: continuous presence of compound 4 or 7 days, at least three experiments, read-out: Average IC50
Description: as §1, §2, §3

[9] = test system: HCC2218 human breast cancer cell line; experiment: Cell growth inhibition assay (methylene blue), HCC2218; details: HC-2218, continuous presence of compound 4 or 7 days, at least three experiments, read-out: Average IC50
Description: as §1, §2, §3

[10] = test system: HCC1419 human breast cancer cell line; experiment: Cell growth inhibition assay (methylene blue), HCC1419; details: continuous presence of compound 4 or 7 days, at least three experiments, read-out: Average IC50
Procedure: as §2, §3

[11] = test system: panel of 19 human breast cancer cell lines; experiment: Cell growth inhibition assay, panel of 19 human breast cancer cell lines; details: for fold-difference between IC50's in the most sensitive and the least sensitive cell line: panel of 19 human breast cancer cell lines
Description: as §1, §2
Antiproliferative effects of four tubulin-binding anticancer agents were evaluated by a methylene blue-based cell growth inhibin assay in a panel of 19 human breast cancer cell lines. The following agents were used in this study: halichondrin analog E7389, hemiasterlin analog E7974, vinblastine, and paclitaxel. Each IC50 determination was conducted in at least three separate experiments. A presence of multidrug resistance efflux pump (P-glycoprotein or PgP) could markedly affect sensitivity of cell lines to test agents and thus mask correlations between beta-tubulin expression and cell lines' sensitivity to test agents. Cell lines were therefore tested for evidence of PgP expression by monitoring effects of the PgP blocker verapamil (used at a 10 μM concentration) on paclitaxel sensitivity. No evidence for PgP expression was found in any of the cell lines tested (Table 4). […] Inter-drug correlations were seen between sensitivities to the three microtubule polymerization inhibitors E7974, E7389, and vinblastine, but not between the microtubule polymerization stabilizer paclitaxel.

[12] = test system: ZR-75-30 human breast cancer cell line; experiment: Cell growth inhibition assay (methylene blue), ZR-75-30; details: continuous presence of compound 4 or 7 days, at least three experiments, read-out: Average IC50
Description: as §1, §2, §3

[13] = test system: MCF-7 human breast cancer cell line; experiment: Cell growth inhibition assay (methylene blue), MCF-7; details: MCF7, continuous presence of compound 4 or 7 days, at least three experiments, read-out: Average IC50
Description: as §1, §2, §3

[14] = test system: HCC1428 human breast cancer cell line; experiment: Cell growth inhibition assay (methylene blue), HCC1428; details: continuous presence of compound 4 or 7 days, at least three experiments, read-out: Average IC50
Description: as §1, §2, §3

[15] = test system: MDA-MB-435 human breast cancer cell line; experiment: Cell growth inhibition assay (methylene blue), MDA-MB-435; details: continuous presence of compound 4 or 7 days, at least three experiments, read-out: Average IC50
Description: as §1, §2, §3

[16] = test system: AU565 human breast cancer cell line; experiment: Cell growth inhibition assay (methylene blue), AU565; details: continuous presence of compound 4 or 7 days, at least three experiments, read-out: Average IC50
Description: as §1, §2, §3

[17] = test system: BT-20 human breast cancer cell line; experiment: Cell growth inhibition assay (methylene blue), BT-20; details: continuous presence of compound 4 or 7 days, at least three experiments, read-out: Average IC50
Description: as §1, §2, §3

[18] = test system: HCC1500 human breast cancer cell line; experiment: Cell growth inhibition assay (methylene blue), HCC1500; details: continuous presence of compound 4 or 7 days, at least three experiments, read-out: Average IC50
Description: as §1, §2, §3

[19] = test system: MDA-MB-468 human breast cancer cell line; experiment: Cell growth inhibition assay (methylene blue), MDA-MB-468; details: continuous presence of compound 4 or 7 days, at least three experiments, read-out: Average IC50
Description: as §1, §2, §3

[20] = test system: HCC38 human breast cancer cell line; experiment: Cell growth inhibition assay (methylene blue), HCC38; details: continuous presence of compound 4 or 7 days, at least three experiments, read-out: Average IC50
Description: as §1, §2, §3

IC50 [1]	IC50 [3]	IC50 [4]	IC50 [5]	IC50 [6]	IC50 [7]	IC50 [8]	IC50 [9]	IC50 [10]	fold-difference between IC50's in the most sensitive and the least sensitive cell line [11]	IC50 [12]	IC50 [13]	IC50 [14]	IC50 [15]	IC50 [16]	IC50 [17]	IC50 [18]	IC50 [19]	IC50 [20]	Compound	IC50 [2]	further results
740 pM	1190 pM	430 pM	310 pM	1750 pM	370 pM	1170 pM	1140 pM	1590 pM	6.2 fold	1800 pM	1450 pM	530 pM	290 pM	650 pM	820 pM	560 pM	450 pM	400 pM	C=C1C[C@@H]2CC[C@@]34C[C@H]5O[C@H]6[C@@H](O3)[C@H]3O[C@H](CC[C@@H]3O[C@H]6[C@H]5O4)CC(=O)C[C@@H]3[C@@H](OC)[C@@H](C[C@H](O)CN)O[C@H]3C[C@H]3O[C@@H](CC[C@@H]1O2)C[C@@H](C)C3=C [E7389]	630 pM	IC50 ([11]; range over 19 human breast cancer cell lines): 290 to 1800 pM
860 pM	1720 pM	530 pM	1320 pM	1600 pM	700 pM	1110 pM	1560 pM	1700 pM	5.6 fold	2400 pM	890 pM	550 pM	430 pM	1050 pM	1150 pM	560 pM	820 pM	730 pM	CC[C@]1(O)C[C@@H]2CN(CCc3c([nH]c4ccccc34)[C@@](C(=O)OC)(c3cc4c(cc3OC)N(C)[C@H]3[C@@](O)(C(=O)OC)[C@H](OC(C)=O)[C@]5(CC)C=CCN6CC[C@]43[C@@H]65)C2)C1 [Vinblastine, vinblastine]	800 pM	
